Results as given in patent publication US11149028B2, “Methods for treating melanoma using small molecules” (NOVA SOUTHEASTERN UNIVERSITY, priority 2016, dated 2021).
“Also recorded” adds a separate entry of the source.

Assays:
WM266-4 cells [1] = assay: CellTiter-Glo cell viability assay, WM266-4 (including rescue assays); format: cell-based, human
Experimental: (§1) Cells were plated in 384-well plates in 8 μL of media. Test compounds and dabrafenib (pharmacological assay control) were prepared as 10-point, 1:3 serial dilutions starting at 300 μM, then added to the cells (4 μL per well) using the Biomek Plates were incubated for 72 h at 37° C., 5% CO2 and 95% relative humidity. After incubation, 4 μL of CellTiter-Glo® (Promega cat #: G7570) were added to each well, and incubated for 15 min at room temperature. Luminescence was recorded using a Biotek Synergy H4 multimode microplate reader. Viability was expressed as a percentage relative to wells containing media only (0%) and wells containing cells treated with DMSO only (100%). Three parameters were calculated on a per-plate basis: (a) the signal-to-background ratio (SB); (b) the coefficient for variation [CV; CV=(standard deviation/mean)×100)] for all compound test wells; and (c) the Z′-factor (18). The IC50 value of the pharmacological control (dabrafenib, LC Laboratories #G-4408) was also calculated to ascertain the assay robustness. In case of viability rescue assays, cells were pre-treated with caspase, calpain, and autophagy inhibitors for 1-3 h before addition of test compounds. Time course viability assay was done with luminescence measurements performed at 4, 24, 48, and 72 h.

calpain in WM266-4 cells = assay: Calpain activity assay (Calpain-Glo); format: cell-based, human; settings: for calpain activity induced by 2155-14 after calpain inhibitor pre-treatment: 25 μM inhibitor, 100 μM 2155-14
Experimental: The Calpain-Glo Protease Assay (Promega cat #) was used to measure the calpain enzyme activity in live cells, according to the manufacturer's instructions. 1,250 of WM-266-4 cells were plated in 384-well white TC-treated plates in 5 μL of serum-free EMEM media. The cells were incubated overnight at 37° C., 5% CO2 and 95% relative humidity and 5 μL of test compounds 2155-14, (100 μM), calpain inhibitor III and PD151746 (25 μM) were added alone or in combination and incubated at 37° C., 5% CO2, and 95% relative humidity for 0.5, 4, and 24 h. After incubation, 10 μL, of a freshly prepared dilution of the Calpain-Glo Reagent stock solution (consisting of Suc-LLVY-Glo™ substrate, Calpain-Glo™ buffer, Luciferin Detection Reagent, and CaCl2) was added to cells at above mentioned times and luminescence was recorded with a Neo 2 microplate reader (Biotek Inc). All experiments were performed in triplicate and the values provided are the calculated average of at least three independent experiments.

[2] = system: LC3-II and beclin-1 in WM266-4 cells; assay: Western blotting for LC3 and beclin-1, WM266-4; format: cell-based, human; settings: 100 μM, 24 h
Experimental: 1×10^6 of WM266-4 or M14 cells were seeded in 3 mL of E-MEM or RPMI-1640 medium supplemented with 10% FBS and 1% penicillin/streptomycin in 6 cm plates. […] After washing with TBST, the membranes were treated with chemilumiscent horseradish peroxidase detection reagent (Thermo Scientific, Cat #32209) and exposed to autoradiography film (Denville Scientific, Inc., Metuchen, N.J., USA, cat #E3018). ImageJ software (NIH, Bethesda, Md.) was used to quantify the intensity of proteins bands. The protein bands were normalized against loading controls (β-actin) and expressed as a fold of an untreated control.

[3] = system: cleaved lamin A/C in WM266-4 cells; assay: Western blotting for lamin A/C cleavage; format: cell-based, human; settings: 100 μM, 24 h
Experimental: 1×10^6 of WM266-4 or M14 cells were seeded in 3 mL of E-MEM or RPMI-1640 medium supplemented with 10% FBS and 1% penicillin/streptomycin in 6 cm plates. […] After washing with TBST, the membranes were treated with chemilumiscent horseradish peroxidase detection reagent (Thermo Scientific, Cat #32209) and exposed to autoradiography film (Denville Scientific, Inc., Metuchen, N.J., USA, cat #E3018). ImageJ software (NIH, Bethesda, Md.) was used to quantify the intensity of proteins bands. The protein bands were normalized against loading controls.

M14 cells = settings: time course 4-72 h; time stated at the place
Experimental: ApoTox-Glo™ Triplex Assay which allows one to simultaneously assess the effect of small molecules on cell viability, toxicity, caspase activity, and cell cycle all in the same well (Niles, A. L.; Moravec, R. A.; Riss, T. L. In vitro viability and cytotoxicity testing and same-well multi-parametric combinations for high throughput screening. Curr Chem Genomics 2009, 3, 33-41) was utilized. First, a mixture of 2 fluorogenic substrates was added to cells. GF-AFC substrate is cell-permeant and non-lytic to cells, allowing the measurement of active protease inside live cells. The second substrate (bis-AAF-R110 Substrate) is not cell-permeable and is only cleaved when proteases are released from cells due to the loss of membrane integrity typical of cell death. This step generates an inversely correlated measurement of cell viability and toxicity.
The second addition is luminogenic DEVD-peptide substrate for caspase-3/7 and Ultra-Glo™ Recombinant Thermostable Luciferase. Caspase-3/7 cleavage of the substrate generates a luminescent signal which correlates with caspase-3/7 activation as a key indicator of apoptosis. As markers for cytotoxicity and apoptosis are transient, the assay was conducted in time course format with time points at 4, 24, 48, and 72 h.
M14 #5 cells were plated in 384-well format at a density of 1,250 cells in 5 μL of serum-free DMEM media and incubated at 37° C. in 5% CO2 for 4 h. Control and test compounds were serially diluted in a ratio of 1:3 and added to wells in 4 μL. […] Plates were incubated at 37° C. in 5% CO2 for 4, 24, 48, and 72 h. At the end of each time point Viability/Cytotoxicity™ Reagent was prepared containing 400 μM glycylphenylalanyl-aminofluorocoumarin (GF-AFC) substrate (cleavable by live cell proteases) and 400 μM bis-alanylalanyl-phenylalanyl-rhodamine 110 (bis-AAF-R110) substrate (cleavable by dead cell proteases). 4 μL of the Viability/Cytotoxicity™ Reagent was used per well. The plate was incubated for 30 min at 37° C. Fluorescence was read at λEx=400 nm and λEm=505 nm for GF-AFC and λEx=485 nm and λEm=520 nm for bis-AAF-R110 on the BioTek Synergy™ 4 Multi-Mode Microplate Reader. Caspase-Glo® 3/7 Reagent was then added in 12 μL volume. The plate was incubated for 30 min at room temperature and luminescence was measured on the BioTek Synergy™ 4 Multi-Mode Microplate Reader.

WM266-4 cells [4] = assay: Annexin V flow cytometry assay; format: cell-based, human; settings: 4 h
Source text: After 4, 24 and 48 hrs of compound exposure the adherent and floating cells were combined and stained using the TACS Annexin V-FITC Apoptosis detection kit (Trevigen Inc, Gaithersburg, Md., USA) using manufacturer's protocol. Viable, necrotic, early and late apoptotic cells were counted using Accuri flow cytometer as per the manufacturer instructions.

[5] = system: mouse embryonic fibroblasts (MEF); assay: Viability of mouse embryonic fibroblasts; format: cell-based
Experimental: as §1

CCCNC(=O)[C@H]1O[C@@H]1C(=O)N[C@H](C(=O)N1CCC[C@H]1C(=O)O)[C@@H](C)CC [CA074, reference compound]
viability of WM266-4 cells (WM266-4 cells [1]; 24 h, 20 μM cathepsin B inhibitor): 25% | increase of calpain activity (calpain in WM266-4 cells; 20 μM, from 30 min, persisted at 4 and 24 h): ~5 fold

O=C(CCCC[C@@H]1SC[C@@H]2NC(=O)N[C@@H]21)NCCCC[C@@H](CN1CCC[C@H]1CN1C(=O)C(=O)NC[C@@H]1Cc1ccccc1)N1C[C@H](Cc2ccc(O)cc2)N(CCc2ccccc2)C(=O)C1=O [Compound 2529-5, N—((S)-6-((S)-2-(((S)-6-benzyl-2,3-dioxopiperazin-1-yl)methyl)pyrrolidin-1-yl)-5-((S)-5-(4-hydroxybenzyl)-2,3-dioxo-4-phenethylpiperazin-1-yl)hexyl)-5-((3aS,4S,6aR)-2-oxohexahydro-1H-thieno[3,4-d]imidazol-4-yl)pentanamide]
IC50 (WM266-4 cells [1]; Homo sapiens, WM 266-4, 72 h, 72 h): > 100 µM | cytotoxicity at 100 µM (WM266-4 cells [1]; Homo sapiens, WM 266-4, 100 μM, 72 h, read-out: maximal inhibition of cell viability): 37% | LC3-II level [2]: did not significantly increase | cleaved lamin A/C level [3]: did not significantly increase; also recorded: had no effect on cleavage of lamin A/C

O=C(O)/C(S)=C/c1c[nH]c2ccc(F)cc12 [PD151746, reference compound]
cell viability restored in presence of 2155-14 (WM266-4 cells [1]; 24 h, 25 μM inhibitor, 100 μM 2155-14): ~75% | cell viability restored in presence of 2155-14 (WM266-4 cells [1]; 48 h, 25 μM inhibitor, 100 μM 2155-14): ~50% | cell viability in presence of 2155-14 (WM266-4 cells [1]; 72 h, 25 μM inhibitor, 100 μM 2155-14): all cells were dead | calpain activity induced by 2155-14 after calpain inhibitor pre-treatment (calpain in WM266-4 cells): shut down calpain activity induced by 2155-14 at 30 min and 4 h but not at 24 h

C[C@H](CCC(=O)O)C[C@H](C)C[C@H](C)C(=O)/C=C(\O)[C@H](C)C[C@H](C)C/C=C/[C@@H](C)[C@@H](O)[C@@H](C)[C@@H](O)C[C@@H]1CC[C@@](C)([C@H]2CC[C@@](C)([C@@H](C)O)O2)O1 [ionomycin, reference compound]
ApoTox caspase-3/7 activity (M14 cells): did not induce a spike in caspase activity at any of the time points | ApoTox cytotoxicity (M14 cells): strong cytotoxicity response | ApoTox viability (live cell protease) (M14 cells): dose dependent loss of viability as early as 4 h

CN[C@@H]1C[C@H]2O[C@@](C)([C@@H]1OC)n1c3ccccc3c3c4c(c5c6ccccc6n2c5c31)C(=O)NC4 [staurosporine, reference compound]
apoptosis detected (WM266-4 cells [4]): apoptosis was detected only in staurosporine-treated cells

CC(C)(C)c1ccc(C(O)CCCN2CCC(C(O)(c3ccccc3)c3ccccc3)CC2)cc1 (stereo not shown) [terfenadine, reference compound]
ApoTox caspase-3/7 activity (M14 cells): early caspase activity spike (4-24 h) | ApoTox viability (live cell protease) (M14 cells): early loss of cell viability

CCCS(=O)(=O)Nc1ccc(F)c(C(=O)c2c[nH]c3ncc(-c4ccc(Cl)cc4)cc23)c1F [vemurafenib, reference compound]
toxicity to mouse embryonic fibroblasts [5]: toxic

MDL-28170 [reference compound]
viability, combination with 2155-14 (WM266-4 cells [1]; 25 μM inhibitor, 100 μM 2155-14): even more pronounced negative effect on viability of cells than either compound alone | calpain activity induced by 2155-14 after calpain inhibitor pre-treatment (calpain in WM266-4 cells): shut down calpain activity induced by 2155-14 at 30 min and 4 h but not at 24 h
